Test results published in article PMC7462985, “Inhibitors of BRAF dimers using an allosteric site” (Nature Communications, 2020).

Experiments:
BRAF^V600E = BRAF^V600E (Homo sapiens, UniProt P15056, V600E); assay: SelectScreen Z'-LYTE kinase activity assay; assay type: biochemical; parameters: purchased Invitrogen (SelectScreen service); settings: 100 μM ATP
Procedure: (§1) BRAF kinase assays were performed using the Z’-LYTE™ enzymatic assay (Invitrogen, USA). […] Titrations were performed using a 1:3 dilution. Assays were performed using SelectScreen (Invitrogen).

BRAF^WT = target: T1, BRAF^WT (Homo sapiens, UniProt P15056); assay: SelectScreen Z'-LYTE kinase activity assay; assay type: biochemical; settings: 100 μM ATP
T1 construct: purchased Invitrogen (SelectScreen service)
Procedure: as §1

[1] = system: A375 cells (BRAF^V600E monomers); assay: p-ERK inhibition by western blot; settings: A375 cells
[2] = system: RAS^MUT/BRAF^WT melanoma or lung cancer cells (SKMEL-30, SKMEL-2, CALU6); assay: ERK signaling inhibition by western blot; settings: RAS^MUT/BRAF^WT cells, 1 h

T1 sequence (P15056 whole entry): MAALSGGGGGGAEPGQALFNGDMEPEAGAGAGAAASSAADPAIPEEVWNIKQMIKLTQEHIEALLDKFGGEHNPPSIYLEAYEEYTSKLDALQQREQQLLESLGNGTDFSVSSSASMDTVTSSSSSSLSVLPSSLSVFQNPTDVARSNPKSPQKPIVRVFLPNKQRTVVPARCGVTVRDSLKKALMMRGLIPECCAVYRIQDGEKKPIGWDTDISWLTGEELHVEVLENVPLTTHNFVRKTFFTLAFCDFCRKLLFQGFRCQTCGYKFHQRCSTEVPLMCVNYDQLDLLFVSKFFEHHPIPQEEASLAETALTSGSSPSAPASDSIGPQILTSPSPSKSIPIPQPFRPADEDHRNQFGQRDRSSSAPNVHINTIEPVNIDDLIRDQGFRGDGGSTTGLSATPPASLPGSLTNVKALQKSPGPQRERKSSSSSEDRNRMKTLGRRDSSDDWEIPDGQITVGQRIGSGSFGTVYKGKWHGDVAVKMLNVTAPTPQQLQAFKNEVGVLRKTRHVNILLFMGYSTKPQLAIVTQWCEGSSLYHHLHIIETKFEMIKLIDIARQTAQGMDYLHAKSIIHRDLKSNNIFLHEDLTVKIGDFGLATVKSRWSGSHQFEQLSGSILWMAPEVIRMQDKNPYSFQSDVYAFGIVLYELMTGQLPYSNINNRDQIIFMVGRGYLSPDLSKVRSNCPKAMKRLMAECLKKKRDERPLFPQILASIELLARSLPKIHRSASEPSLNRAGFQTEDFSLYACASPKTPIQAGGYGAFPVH
Chain of BRAF^V600E (P15056 whole entry V600E): as the sequence (P15056 whole entry) above, with V600E counted along it

IC50 (BRAF^V600E) [nM]	IC50 (BRAF^WT) [nM]	Structure (SMILES)	inhibitory activity for BRAF^V600E monomers in comparison to PHI1 (in words) ([1]; 1 h)	concentration that robustly inhibits ERK signaling ([1]; 3 hrs, immunoblot) [µM]	effect on p-ERK levels (in words) [2]
35 ± 2.8	598 ± 113	CCc1cc(N2CCC(NCc3ccc(NC(=O)c4ccc(C)c(C#Cc5cnc6cccnn56)c4)cc3C(F)(F)F)CC2)ncn1 [PHI2]	increased	–	–
–	–	CCCS(=O)(=O)Nc1ccc(F)c(C(=O)c2c[nH]c3ncc(-c4ccc(Cl)cc4)cc23)c1F [Vemurafenib]	–	0.3	enhances p-ERK levels
